Laboratory results as given in US20220411428A1, “Pyrimidone Derivatives Containing Two Fused Bicyclic Rings” (priority 2019, published 2022).

Experiments:
Assay type in all cases: in vivo
[1] = tested on: tobacco budworm (Heliothis virescens); assay: Tobacco budworm (Heliothis virescens) microtiter insect-diet test; settings: 120 h, read-out: mortality in comparison with untreated controls
Protocol: (§1) If not otherwise specified, the test solutions are prepared as follows: The active compound is dissolved at the desired concentration in a mixture of 1:1 (vol:vol) distilled water:acteone. The test solution is prepared at the day of use. Test solutions are prepared in general at concentrations of 2500 ppm, 1415 ppm, 828 ppm, 800 ppm and 300 ppm (wt/vol).
(§2) For evaluating control of tobacco budworm (Heliothis virescens) the test unit consisted of 96-well-microtiter plates containing an insect diet and 15-25 H. virescens eggs. The compounds were formulated using a solution containing 75% v/v water and 25% v/v DMSO. Different concentrations of formulated compounds were sprayed onto the insect diet at 10 μl, using a custom built micro atomizer, at two replications. After application, microtiter plates were incubated at about 28±1° C. and about 80±5% relative humidity for 5 days. Egg and larval mortality was then visually assessed.

[2] = tested on: vetch aphid (Megoura viciae); assay: Vetch aphid (Megoura viciae) broad bean leaf disk test, contact or systemic; settings: foliar, 120 h, read-out: mortality in comparison with untreated controls
Protocol: as §1
For evaluating control of vetch aphid (Megoura viciae) through contact or systemic means the test unit consisted of 24-well-microtiter plates containing broad bean leaf disks.
The compounds were formulated using a solution containing 75% v/v water and 25% v/v DMSO. Different concentrations of formulated compounds were sprayed onto the leaf disks at 2.5 μl, using a custom built micro atomizer, at two replications. After application, the leaf disks were air-dried and 5-8 adult aphids placed on the leaf disks inside the microtiter plate wells. The aphids were then allowed to suck on the treated leaf disks and incubated at about 23±1° C. and about 50±5% relative humidity for 5 days. Aphid mortality and fecundity was then visually assessed.

[3] = tested on: boll weevil (Anthonomus grandis); assay: Boll weevil (Anthonomus grandis) microtiter insect-diet test; settings: 120 h, read-out: mortality in comparison with untreated controls
Protocol: as §1
as §2, with “boll weevil (Anthonomus grandis)” for “tobacco budworm (Heliothis virescens)”, “5-10 A. grandis” for “15-25 H. virescens”, “5” for “10”, “25±1°” for “28±1°”, “75±5%” for “80±5%”

[4] = tested on: yellow fever mosquito (Aedes aegypti); assay: whole plant or invertebrate; settings: 48 h, larval mortality, 2 days, read-out: mortality in comparison with untreated controls
Protocol: as §1
For evaluating control of yellow fever mosquito (Aedes aegypti) the test unit consisted of 96-well-microtiter plates containing 200 μl of tap water per well and 5-15 freshly hatched A. aegypti 5 larvae. The active compounds were formulated using a solution containing 75% (v/v) water and 25% (v/v) DMSO. Different concentrations of formulated compounds or mixtures were sprayed onto the insect diet at 2.5 μl, using a custom-built micro atomizer, at two replications. After application, microtiter plates were incubated at 28±1° C., 80±5% R^H for 2 days. Larval 10 mortality was then visually assessed.

[5] = tested on: green peach aphid (Myzus persicae); assay: Green peach aphid (Myzus persicae) systemic test, artificial diet under membrane; settings: 72 h, read-out: mortality in comparison with untreated controls
Protocol: as §1
For evaluating control of green peach aphid (Myzus persicae) through systemic means the test unit consisted of 96-well-microtiter plates containing liquid artificial diet under an artificial membrane. The compounds were formulated using a solution containing 75% v/v water and 25% v/v DMSO. Different concentrations of formulated compounds were pipetted into the aphid diet, using a custom built pipetter, at two replications. After application, 5-8 adult aphids were placed on the artificial membrane inside the microtiter plate wells. The aphids were then allowed to suck on the treated aphid diet and incubated at about 23±1° C. and about 50±5% relative humidity for 3 days. Aphid mortality and fecundity was then visually assessed.

[6] = tested on: Greenhouse Whitefly (Trialeurodes vaporariorum); assay: Greenhouse whitefly (Trialeurodes vaporariorum) egg plant leaf disk test; settings: foliar, 144 h, read-out: mortality in comparison with untreated controls
Protocol: as §1
For evaluating control of Greenhouse Whitefly (Trialeurodes vaporariorum) the test unit consisted of 96-well-microtiter plates containing a leaf disk of egg plant leaf disk with white fly eggs. The compounds or mixtures were formulated using a solution containing 75% water and 25% DMSO. Different concentrations of formulated were sprayed onto the insect diet at 2.5 μl, using a custom-built micro atomizer, at two replications. After application, microtiter plates were incubated at 23±1° C., 65±5% R^H for 6 days. Mortality of hatched crawlers was then visually assessed.

Row | Compound | mortality at 2500 ppm [1] | mortality at 2500 ppm [2] | mortality at 800 ppm [3] | mortality at 2500 ppm [4] | mortality at 2500 ppm [5] | mortality at 800 ppm [1] | mortality at 800 ppm ([4]; 800 ppm) | mortality at 800 ppm [5] | mortality at 828 ppm [3] | mortality at 2500 ppm [6]
1 | CCS(=O)(=O)c1c(-c2cn3c(=O)n(C)c(C(F)(F)F)cc3n2)nc2ccc(C(F)(F)F)cn12 [I.1, 2-[3-ethylsulfonyl-6-(trifluoromethyl)imidazo[1,2-a]pyridin-2-yl]-6-methyl-7-(trifluoromethyl)imidazo[1,2-c]pyrimidin-5-one] | > 75% | > 75% | > 75% | ≥ 75% | > 75% | – | – | – | – | –
2 | CCS(=O)(=O)c1c(-c2cn3c(=O)n(C)c(C(F)(F)F)cc3n2)nc2n1CCCC2 [I.13, 2-(3-ethylsulfonyl-5,6,7,8-tetrahydroimidazo[1,2-a]pyridin-2-yl)-6-methyl-7-(trifluoromethyl)imidazo[1,2-c]pyrimidin-5-one] | – | – | > 75% | – | – | – | – | – | – | –
3 | CCS(=O)(=O)c1c(-c2cn3c(=O)n(C4CC4)c(C(F)(F)F)cc3n2)nn2ccccc12 [I.11, 6-cyclopropyl-2-(3-ethylsulfonylpyrazolo[1,5-a]pyridin-2-yl)-7-(trifluoromethyl)imidazo[1,2-c]pyrimidin-5-one] | – | – | > 75% | – | – | > 75% | ≥ 75% | > 75% | – | –
4 | CCS(=O)(=O)c1c(-c2cn3c(=O)n(C4CC4)c(C(F)(F)F)cc3n2)nc2ccccn12 [I.2, 6-cyclopropyl-2-[3-(ethanesulfonyl)imidazo[1,2-a]pyridin-2-yl]-7-(trifluoromethyl)imidazo[1,2-c]pyrimidin-5-one] | – | – | – | ≥ 75% | > 75% | – | – | – | > 75% | ≥ 75%
